The values below come from patent US7059206B1 (priority 1999, dated 2006).

Data set [1] in a line: Uptake by prototype passive sampler at constant exposure concentration over time. Particulars: polyethylene device. The protocol:
In each experiment, the prototype device was tested fitted with both the polyethylene and the polysulphone membrane.
Accumulation of organic analytes by a passive sampling system fitted with a C18 Empore™ disk as receiving phase and either a […] pore size polysulphone membrane or a polyethylene membrane as a diffusion-limiting membrane material. Accumulation was measured following exposure of the system to an aqueous solution of analytes at constant concentration, stirring speed (140 rpm) and temperature (11° C.). Linear regressions of the accumulation factor, AF, (ml/device) on time were plotted and are given with the […] (R^2) in table 7. AF=mass of analytes in the tested compartment (ng/device)/mean concentration of the analyte in the aqueous phase during deployment (ng/ml).
The pattern of uptake in each case is linear with time over deployment periods ranging from several hours to 9 days. R^2 values in each case are above 0.9. Linear regressions plotted through the data points show the lag time between exposure of the device to an aqueous solution of each analyte and its uptake into the receiving phase of the passive sampling system. In effect this is a measurement of the response time of a particular prototype passive sampling system to a particular compound.

The conditions of data set [2]: cited from earlier work.
Data set [3] in a line: Cadmium uptake by passive sampler, effect of pH and of permselective membrane. The source says:
Further evidence for the permselective function of the membrane during diffusion is illustrated by studying the effect of pH on metal uptake by the passive sampler, in this case Cd. […] Cadmium was initially added to a carefully-controlled water system in the laboratory into which the sampler was placed. Samples of water were taken over a period of 10 days.
Further evidence of the interaction of metal with the permselective membrane is that uptake to a naked disk is much more rapid. The uptake rate constant (k) for Cd is 1.6×10^9 min^−1 for the naked disk and 0.21×10^9 min^−1 for the permselective membrane.

Like-named read-outs stand apart in the source and are kept apart here.

With `c1ccc2c(c1)ccc1ccccc12` [Phenanthrene], the “lag phase between exposure and uptake into the C18 receiving phase” value in data set [1] is “only a small lag phase”.
As for `CN(C)C(=O)Nc1ccc(Cl)c(Cl)c1` [Diuron], the Solubility in water in data set [2] (at 25° C.) is listed as 42 mgl^−1.
For `Clc1cc(Cl)c(-c2cc(Cl)c(Cl)cc2Cl)cc1Cl` [PCB 153], in data set [1], the “lag phase between exposure and uptake into the C18 receiving phase” value is on record as “a more significant lag phase”. In addition, the Solubility in water in data set [2] (temperature not given) is 0.00105 mgl^−1.
In the case of `Clc1ccc(Cl)c(-c2cc(Cl)ccc2Cl)c1` [PCB 52], the “lag phase between exposure and uptake into the C18 receiving phase” value in data set [1] was “only a small lag phase”. For the same compound, the Solubility in water in data set [2] (temperature not given) was 0.03 mgl^−1.
With `[Cd]` [Cadmium], the entries for the “uptake rate constant (k)” value in data set [3] (naked disk) and in data set [3] (permselective membrane (Nafion-coated cellulose acetate)) were 1.6e+09 min⁻¹ and 2.1e+08 min⁻¹, respectively.
In the case of `ClC1=C(Cl)[C@]2(Cl)[C@@H]3[C@@H]4C[C@@H]([C@H]5O[C@@H]45)[C@@H]3[C@@]1(Cl)C2(Cl)Cl` [Dieldrin], the “lag phase between exposure and uptake into the C18 receiving phase” value in data set [1] is recorded as “a more significant lag phase”. Besides, the Solubility in water in data set [2] (at 25° C.) is reported as 0.186 mgl^−1.
